Source: patent US20120004228A1, “Bis Aromatic Compounds for Use as LTC4 Synthase Inhibitors” (BIOLIPOX AB, priority 2009, published 2012)

Tests used:
[1] = biological target: T1, Recombinant human LTC4 synthase (Homo sapiens, UniProt Q16873); assay: In vitro LTC4 synthase assay (LTA4 to LTC4, HTRF detection); type: biochemical
T1 construct: made in house; host or cells: Pichia pastoris ('Piccia pastoralis' [sic])
T1 sequence (Q16873 1-150): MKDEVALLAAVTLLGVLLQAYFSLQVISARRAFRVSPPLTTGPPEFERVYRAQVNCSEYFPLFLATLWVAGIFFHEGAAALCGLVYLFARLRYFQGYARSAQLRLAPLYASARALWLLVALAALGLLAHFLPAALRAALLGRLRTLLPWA

[2] = biological target: T1, Recombinant human LTC4 synthase; assay: as above; type: biochemical; remark: listed apart in the source

| IC50 [1] [nM] | inhibition at 1 µM [2] [%] | Structure (SMILES) |
| --- | --- | --- |
| 166 | 95 | CN(c1ccc(Cl)cc1)c1ccc(C(=O)c2cc(NC(=O)c3ccc(Cl)cc3Cl)cc(C(=O)O)c2)cc1 [Example 1:1, 3-{4-[(4-Chlorophenyl)(methyl)amino]benzoyl}-5-(2,4-dichlorobenzamido)benzoic acid] |
| 146 |  | CN(c1ccc(Cl)cc1)c1ccc(C(=O)c2cc(C(=O)O)cc(C(=O)c3ccccc3)c2)nc1 [Example 14, 3-Benzoyl-5-{5-[(4-chlorophenyl)(methyl)amino]picolinoyl}benzoic acid] |
| 173 |  | COc1cccc(C(=O)c2cc(C(=O)O)cc(C(=O)c3ccc(N(C)c4ccc(Cl)cc4)cn3)c2)c1 [Example 15, 3-{5-[(4-Chlorophenyl)(methyl)amino]picolinoyl}-5-(3-methoxybenzoyl)benzoic acid] |
| 259 |  | CN(c1ccc(Cl)cc1)c1ccc(C(=O)c2cc(C(=O)O)cc(-n3ccc4ccccc43)c2)nc1 [Example 16, 3-{5-[(4-Chlorophenyl)(methyl)aminol]picolinoyl}-5-(1-indolyl)benzoic acid] |
